Results from ChEMBL document CHEMBL1201862, “PubChem BioAssay data set” (2004).
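Compound exposure: 48 hours, 5 concentrations, 96-well plates. Here, GI50 denotes the concentration required for 50% inhibition of growth.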 Active and inactive are the calls of the source. No stated cut-off is given here; in the data, active = GI50 up to about 1.1 µM and inactive = higher.

Experiments:
Test in all cases: NCI-60 cell line screen, 48 h
[1] = test system: SK-MEL-2
[2] = test system: HOP-92
[3] = test system: Hs-578T
[4] = test system: PC-3
[5] = test system: SF-268
[6] = test system: OVCAR-8
[7] = test system: SW-620
[8] = test system: HCC 2998
[9] = test system: MDA-N
[10] = test system: NCI-H226
[11] = test system: BT-549
[12] = test system: NCI-H522
[13] = test system: A498
[14] = test system: HL-60
[15] = test system: SF-539
[16] = test system: COLO 205
[17] = test system: UACC-257
[18] = test system: TK-10
[19] = test system: CCRF-CEM
[20] = test system: SK-MEL-5
[21] = test system: LOX IMVI
[22] = test system: 786-0
[23] = test system: NCI-H460
[24] = test system: IGROV-1
[25] = test system: HCT-116
[26] = test system: HCT-15
[27] = test system: ACHN
[28] = test system: RPMI-8226
[29] = test system: Malme-3M
[30] = test system: MDA-MB-231
[31] = test system: UACC-62
[32] = test system: SK-MEL-28
[33] = test system: U-251
[34] = test system: NCI/ADR-RES
[35] = test system: MCF7
[36] = test system: SR
[37] = test system: SN12C
[38] = test system: K562
[39] = test system: NCI-H23
[40] = test system: MOLT-4
[41] = test system: KM12
[42] = test system: MDA-MB-435
[43] = test system: M14
[44] = test system: A549
[45] = test system: RXF 393
[46] = test system: CAKI-1
[47] = test system: UO-31
[48] = test system: SK-OV-3
[49] = test system: SF-295
[50] = test system: EKVX
[51] = test system: OVCAR-5
[52] = test system: SNB-19
[53] = test system: OVCAR-3
[54] = test system: HT-29
[55] = test system: DU-145
[56] = test system: SNB-75
[57] = test system: HOP-62
[58] = test system: OVCAR-4

## Nc1c2c(nc3ccccc13)-c1ccccc1CC2
[1]
  GI50: 11 µM (inactive)
[2]
  GI50: 8.09 µM (inactive)
[3]
  GI50: 16.4 µM (inactive)
[4]
  GI50: 3.59 µM (inactive)
[5]
  GI50: 7.82 µM (inactive)
[6]
  GI50: 4.37 µM (inactive)
[7]
  GI50: 3.15 µM (inactive)
[8]
  GI50: 1.43 µM (inactive)
[9]
  GI50: 4.19 µM (inactive)
[10]
  GI50: 12.1 µM (inactive)
[11]
  GI50: 13.2 µM (inactive)
[12]
  GI50: 8.67 µM (inactive)
[13]
  GI50: 3.16 µM (inactive)
[14]
  GI50: 0.942 µM (active)
[15]
  GI50: 3.24 µM (inactive)
[16]
  GI50: 3.76 µM (inactive)
[17]
  GI50: 2.82 µM (inactive)
[18]
  GI50: 3.96 µM (inactive)
[19]
  GI50: 3.4 µM (inactive)
[20]
  GI50: 4.04 µM (inactive)
[21]
  GI50: 4.34 µM (inactive)
[22]
  GI50: 3.52 µM (inactive)
[23]
  GI50: 2.12 µM (inactive)
[24]
  GI50: 3.82 µM (inactive)
[25]
  GI50: 3.76 µM (inactive)
[26]
  GI50: 3.96 µM
[27]
  GI50: 3.56 µM (inactive)
[28]
  GI50: 4.09 µM (inactive)
[29]
  GI50: 8.49 µM (inactive)
[30]
  GI50: 3.88 µM (inactive)
[31]
  GI50: 9.68 µM (inactive)
[32]
  GI50: 10.4 µM (inactive)
[33]
  GI50: 4.17 µM (inactive)
[34]
  GI50: 5.32 µM (inactive)
[35]
  GI50: 1.85 µM (inactive)
[36]
  GI50: 2.33 µM (inactive)
[37]
  GI50: 4.06 µM (inactive)
[38]
  GI50: 3.56 µM (inactive)
[39]
  GI50: 10.6 µM (inactive)
[40]
  GI50: 2.38 µM (inactive)

## S=C(N/N=C(\C(=N/NC(=S)N1CCCCC1)c1ccccn1)c1ccccn1)N1CCCCC1
[41]
  GI50: 51.8 µM (inactive)
[42]
  GI50: 38.4 µM (inactive)
[43]
  GI50: 15.2 µM (inactive)
[2]
  GI50: 64.3 µM (inactive)
[3]
  GI50: 28.8 µM (inactive)
[44]
  GI50: 31.1 µM (inactive)
[4]
  GI50: 35.1 µM (inactive)
[45]
  GI50: 18 µM (inactive)
[5]
  GI50: 5.55 µM (inactive)
[46]
  GI50: 73.6 µM (inactive)
[47]
  GI50: 19.2 µM (inactive)
[6]
  GI50: 27.9 µM (inactive)
[48]
  GI50: 29.1 µM (inactive)
[7]
  GI50: 9.12 µM (inactive)
[8]
  GI50: 26.3 µM (inactive)
[9]
  GI50: 57.8 µM (inactive)
[10]
  GI50: 26.3 µM (inactive)
[11]
  GI50: 78.2 µM (inactive)
[12]
  GI50: 9.18 µM (inactive)
[13]
  GI50: 32.7 µM (inactive)
[14]
  GI50: 1.12 µM (active)
[49]
  GI50: 34.8 µM (inactive)
[15]
  GI50: 35.4 µM (inactive)
[50]
  GI50: 80 µM (inactive)
[16]
  GI50: 6.38 µM (inactive)
[51]
  GI50: 51.2 µM (inactive)
[17]
  GI50: 54.1 µM (inactive)
[18]
  GI50: 19.4 µM (inactive)
[19]
  GI50: 3.91 µM (inactive)
[20]
  GI50: 5.5 µM (inactive)
[21]
  GI50: 20.2 µM (inactive)
[52]
  GI50: 30.3 µM (inactive)
[53]
  GI50: 3.63 µM (inactive)
[22]
  GI50: 36.5 µM (inactive)
[54]
  GI50: 61 µM (inactive)
[23]
  GI50: 14 µM (inactive)
[24]
  GI50: 48.8 µM (inactive)
[25]
  GI50: 15.5 µM (inactive)
[26]
  GI50: 6.87 µM
[27]
  GI50: 6.84 µM (inactive)
[55]
  GI50: 14.9 µM (inactive)
[28]
  GI50: 67.9 µM (inactive)
[29]
  GI50: 17.3 µM (inactive)
[30]
  GI50: > 100 µM (inactive)
[56]
  GI50: 56.1 µM (inactive)
[31]
  GI50: 26.5 µM (inactive)
[32]
  GI50: 21.1 µM (inactive)
[33]
  GI50: 32.7 µM (inactive)
[34]
  GI50: 7.06 µM (inactive)
[35]
  GI50: 12.1 µM (inactive)
[36]
  GI50: > 100 µM (inactive)
[38]
  GI50: 32.5 µM (inactive)
[57]
  GI50: 21.3 µM (inactive)
[39]
  GI50: 44.8 µM (inactive)
[40]
  GI50: 8.53 µM (inactive)

## O=[N+]([O-])c1ccc(C2c3c(O)nc(O)nc3Oc3nc(O)nc(O)c32)cc1
[41]
  GI50: > 100 µM (inactive)
[42]
  GI50: > 100 µM (inactive)
[43]
  GI50: > 100 µM (inactive)
[1]
  GI50: > 100 µM (inactive)
[3]
  GI50: > 100 µM (inactive)
[44]
  GI50: > 100 µM (inactive)
[4]
  GI50: > 100 µM (inactive)
[45]
  GI50: 8.36 µM (inactive)
[5]
  GI50: > 100 µM (inactive)
[46]
  GI50: > 100 µM (inactive)
[47]
  GI50: > 100 µM (inactive)
[6]
  GI50: > 100 µM (inactive)
[48]
  GI50: > 100 µM (inactive)
[7]
  GI50: > 100 µM (inactive)
[9]
  GI50: > 100 µM (inactive)
[10]
  GI50: > 100 µM (inactive)
[11]
  GI50: > 100 µM (inactive)
[12]
  GI50: 17.9 µM (inactive)
[13]
  GI50: > 100 µM (inactive)
[14]
  GI50: 33.7 µM (inactive)
[49]
  GI50: > 100 µM (inactive)
[58]
  GI50: > 100 µM (inactive)
[50]
  GI50: > 100 µM (inactive)
[16]
  GI50: > 100 µM (inactive)
[51]
  GI50: > 100 µM (inactive)
[17]
  GI50: > 100 µM (inactive)
[18]
  GI50: > 100 µM (inactive)
[19]
  GI50: 13.8 µM (inactive)
[20]
  GI50: > 100 µM (inactive)
[52]
  GI50: > 100 µM (inactive)
[53]
  GI50: > 100 µM (inactive)
[22]
  GI50: > 100 µM (inactive)
[54]
  GI50: > 100 µM (inactive)
[23]
  GI50: > 100 µM (inactive)
[24]
  GI50: > 100 µM (inactive)
[25]
  GI50: > 100 µM (inactive)
[26]
  GI50: > 100 µM
[27]
  GI50: > 100 µM (inactive)
[55]
  GI50: > 100 µM (inactive)
[28]
  GI50: 28.8 µM (inactive)
[30]
  GI50: > 100 µM (inactive)
[31]
  GI50: 95.3 µM (inactive)
[32]
  GI50: > 100 µM (inactive)
[33]
  GI50: > 100 µM (inactive)
[37]
  GI50: > 100 µM (inactive)
[57]
  GI50: > 100 µM (inactive)
[39]
  GI50: > 100 µM (inactive)
